Source: EP0655439A2, “5,6-Bicyclic glycoprotein IIb IIIa antagonists useful in inhibition of platelet aggregation” (ELI LILLY AND COMPANY, priority 1993, dated 1995)

Assays:
[1] = system: human platelet-rich plasma; test: Platelet aggregation assay (PRP), Aggregation-Human/PRP/ADP; type: cell-based; details: 1 min, 1 minute at 37°C before aggregating agent, most often ADP 5 µM
Experimental: In addition to the ELISA GPllb-Illa assay previously described the Aggregation-Human/PRP/ADP Assay is useful for evaluating therapeutic compounds.
Platelet-rich plasma was prepared from healthy human volunteers for use in determining inhibition of platelet aggregation by the compounds. Blood was collected via a 21 gauge butterfly cannula, using a two-syringe technique into 1/10 volume of 10% trisodium citrate.
Platelet-rich plasma was prepared at room temperature by centrifugation of the citrated whole blood at 100 x g for 15 minutes. The platelet rich plasma contained approximately 200-400,000 platelets/µl.
Platelet-poor plasma was prepared by centrifugation of citrated whole blood at 12,000 x g for 2 minutes.
Platelet aggregation was assayed in a 4-channel platelet aggregation profiler (PAP-4, Biodata, Hatboro, PA) according to the manufacturers directions. Inhibition of platelet aggregation was studied by adding varying amounts of test compounds to stirred human platelet-rich plasma. Specifically, the human platelet-rich plasma was incubated with test compounds for 1 minute at 37°C prior to the addition of a variety of aggregating agents most often ADP 5 µM, but also 1 µg/ml collagen, 1 µM U46619 or 1 µM platelet activating factor.

[2] = target: T1, GPIIb-IIIa (Homo sapiens, UniProt P05106+P08514); test: GPIIb-IIIa ELISA assay (inhibition of fibrinogen binding to immobilized receptor); details: purified platelet GPIIb-IIIa coated on plates; biotinylated fibrinogen 10 nM; 3 hours at 25 °C
T1 construct: Purified platelet GPIIb-IIIa receptor was prepared as described by Fitzgerald, L.A., et al; from tissue; host or cells: platelets (purified by the method of Fitzgerald et al., Anal Biochem 1985)
T1 sequence (P08514 32-887 limits assumed): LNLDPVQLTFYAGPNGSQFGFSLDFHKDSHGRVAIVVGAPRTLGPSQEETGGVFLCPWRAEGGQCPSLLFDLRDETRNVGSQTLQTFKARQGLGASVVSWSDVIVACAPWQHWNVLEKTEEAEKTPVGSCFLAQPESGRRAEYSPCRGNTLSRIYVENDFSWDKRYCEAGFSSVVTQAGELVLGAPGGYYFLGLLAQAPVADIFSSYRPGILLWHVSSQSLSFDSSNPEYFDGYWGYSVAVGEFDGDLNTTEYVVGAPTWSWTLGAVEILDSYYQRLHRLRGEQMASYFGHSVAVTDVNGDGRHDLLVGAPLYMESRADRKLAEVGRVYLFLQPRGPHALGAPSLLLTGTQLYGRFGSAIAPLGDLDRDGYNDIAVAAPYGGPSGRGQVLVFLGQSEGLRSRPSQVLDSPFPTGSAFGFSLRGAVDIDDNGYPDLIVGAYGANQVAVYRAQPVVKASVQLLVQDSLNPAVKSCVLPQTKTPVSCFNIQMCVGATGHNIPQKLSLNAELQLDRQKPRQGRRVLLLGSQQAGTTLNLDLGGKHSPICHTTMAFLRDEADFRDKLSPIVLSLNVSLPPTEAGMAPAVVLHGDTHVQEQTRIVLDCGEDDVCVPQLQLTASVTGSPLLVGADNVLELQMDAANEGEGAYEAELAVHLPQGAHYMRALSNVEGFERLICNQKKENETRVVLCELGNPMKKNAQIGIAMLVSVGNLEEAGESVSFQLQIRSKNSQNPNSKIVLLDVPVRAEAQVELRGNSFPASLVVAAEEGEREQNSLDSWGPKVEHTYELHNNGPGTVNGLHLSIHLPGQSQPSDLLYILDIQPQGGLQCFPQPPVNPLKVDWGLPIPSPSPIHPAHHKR
T1 sequence (P08514 891-1039 partner limits assumed): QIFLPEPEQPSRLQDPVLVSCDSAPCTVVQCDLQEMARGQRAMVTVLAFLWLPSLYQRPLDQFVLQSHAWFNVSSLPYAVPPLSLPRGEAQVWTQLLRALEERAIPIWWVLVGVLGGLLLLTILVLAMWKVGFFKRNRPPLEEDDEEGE
T1 sequence (P05106 27-788): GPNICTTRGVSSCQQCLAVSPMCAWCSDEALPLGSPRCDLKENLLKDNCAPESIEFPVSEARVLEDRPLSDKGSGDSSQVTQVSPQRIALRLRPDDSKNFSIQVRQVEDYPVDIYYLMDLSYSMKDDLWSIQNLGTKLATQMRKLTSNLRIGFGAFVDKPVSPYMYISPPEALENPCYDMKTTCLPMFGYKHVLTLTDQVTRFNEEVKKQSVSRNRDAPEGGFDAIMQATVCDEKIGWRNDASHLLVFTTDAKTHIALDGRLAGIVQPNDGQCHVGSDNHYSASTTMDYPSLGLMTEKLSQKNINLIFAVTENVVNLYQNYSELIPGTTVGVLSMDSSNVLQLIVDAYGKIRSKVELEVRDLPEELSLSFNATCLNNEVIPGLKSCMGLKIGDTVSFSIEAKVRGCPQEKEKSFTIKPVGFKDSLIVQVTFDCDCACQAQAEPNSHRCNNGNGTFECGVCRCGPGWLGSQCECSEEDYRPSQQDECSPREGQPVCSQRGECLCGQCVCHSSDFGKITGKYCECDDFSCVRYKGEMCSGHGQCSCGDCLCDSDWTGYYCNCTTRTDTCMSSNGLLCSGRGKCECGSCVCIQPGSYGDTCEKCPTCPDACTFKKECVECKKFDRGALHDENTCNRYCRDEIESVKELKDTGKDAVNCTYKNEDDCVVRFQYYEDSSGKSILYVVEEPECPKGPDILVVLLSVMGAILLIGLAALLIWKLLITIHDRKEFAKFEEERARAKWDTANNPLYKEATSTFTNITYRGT
Experimental: In the following assay, GPllb-Illa is prepared in purified form, by a method such as described by Fitzgerald, L.A., et al., Anal Biochem (1985) 151:159-177,(the disclosure of which is incorporated herein by reference). GPIIb-IIIa is coated onto microtiter plates. The coated support is then contacted with fibrinogen and with the test material and incubated for a sufficient time to permit maximal binding of fibrinogen to the immobilized GPIIb-IIIa. Fibrinogen is typically provided at a concentration of about 5-50 nM and the test material can, if desired, be added at a series of dilution. Typical incubations are 2-4 hr at 25°C, the time and temperature being interdependent.
After incubation, the solution containing the fibrinogen and test material is removed and the level of binding of fibrinogen measured by quantitating bound fibrinogen to GPllb-llla. Any suitable means of detection may be used, but it is convenient to employ labeled fibrinogen, for example using biotinylated labels. Such methods are well known in the art.
Purified platelet GPIIb-IIIa receptor was prepared as described by Fitzgerald, L.A., et al., Anal Biochem (1985) 151:169-177. Vitronectin receptor was prepared as described by Smith, J.W., J. Bioi Chem (1988) 263:18726-18731. After purification, the receptors were stored in 0.1% Triton X-100 at 0.1-1.0 mg/ml.
The receptors were coated to the wells of 96-well flat-bottom ELISA plates (Linbro EIA-Plus microtiter plate, Flow Laboratories) after diluting 1:200 with a solution of 20 mM Tris-HCI, 150 MM NaCi, 1 mM CaCl2, pH 7.4, to reduce the Triton x-100 concentration to below its critical micellar concentration and adding an aliquot of 100 ul to each well. The wells were all allowed to incubate overnight at 4°C, and then aspirated to dryness. Additional sites were blocked by the addition of bovine serum albumin (BSA) at 35 mg/ml in the above buffer for 2 hours at 30°C to prevent nonspecific binding. The wells were then washed once with binding buffer ([…] Tris-HCI, 100 mM Nacl 2 mM CaC12, 1 mg/ml BSA).
The corresponding ligands (fibrinogen, von Willebrand Factor, orvitronectin) were conjugated to biotin using commercially available reagents and standard protocols. The labeled ligands were added to the receptor- coated wells at final concentration of 10 nM (100 ul/well) and incubated for 3 hours at 25 °C in the presence or absence of the test samples. After incubation, the wells are aspirated to dryness and bound ligand is quan- titated.
The bound protein is detected by the addition of antibiotin antibody conjugated to alkaline phosphatase followed by addition of substrate (p-nitrcphenyl phosphate), and determination of the optical density of each well at 405 nM. Decreased color development is observed in wells incubated with test samples which inhibit binding of ligand to receptor.

SMILES	IC50 [1] [µM]	IC50 [2] [µM]
CC(CCCCNC(=O)c1cc2cc(C(=N)N)ccc2s1)CC(=O)O (stereo not drawn) [Example 31]	3.3	0.32
CCCCCCC(CCCCNC(=O)c1cc2cc(C(=N)N)ccc2[nH]1)CC(=O)O (stereo not drawn) [Example 20]	70	0.8
CCC(CCCCCNC(=O)c1cc2cc(C(=N)N)ccc2[nH]1)C(=O)O (stereo not drawn) [Example 14]	> 100	21.5
N=C(N)c1ccc2sc(C(=O)NCCCCCCC(=O)O)cc2c1 [Example 23]	9	0.74
N=C(N)c1ccc2oc(C(=O)NCCCCCCC(=O)O)cc2c1 [Example 22]	0.27	0.04
N=C(N)c1ccc2[nH]c(C(=O)NCCCCCC(=O)O)cc2c1 [Example 28]	100	42.7
N=C(N)c1ccc2[nH]c(C(=O)NCc3ccc(CCC(=O)O)cc3)cc2c1 [Example 9]	40	4.45
N=C(N)c1ccc2[nH]c(C(=O)NCCCCC(=O)O)cc2c1 [Example 27]	100	
Cn1c(C(=O)NCCCCCCC(=O)O)cc2cc(C(=N)N)ccc21 [Example 30]	8	3
CCCCCCC(CCCCCNC(=O)c1cc2cc(C(=N)N)ccc2[nH]1)C(=O)O (stereo not drawn) [Example 16]	> 100	19
CN(CCCCCCC(=O)O)C(=O)c1cc2cc(C(=N)N)ccc2[nH]1 [Example 21]	2.5	0.38
CCCCC(CCCCNC(=O)c1cc2cc(C(=N)N)ccc2[nH]1)CC(=O)O (stereo not drawn) [Example 19]	30	0.63
N=C(N)c1ccc2cc(C(=O)NCCCCCCC(=O)O)[nH]c2c1 [Example 25]	0.8	0.13
N=C(N)c1ccc2[nH]c(C(=O)NCCCCCCC(=O)O)cc2c1 [Example 26]	2.7	0.7
NCc1ccc2[nH]c(C(=O)NCCCCCCC(=O)O)cc2c1 [Example 36]	25	4.23
N=C(N)c1ccc(COc2ccc3oc(C(=O)NCC(=O)O)cc3c2)cc1 [Example 35]	100	3.4
CC(CCCCNC(=O)c1cc2cc(C(=N)N)ccc2[nH]1)CC(=O)O (stereo not drawn) [Example 17]	2.7	0.21
N=C(N)c1ccc2[nH]c(C(=O)NCCOCCCC(=O)O)cc2c1 [Example 12]	9	1.2
CCC(CCCCNC(=O)c1cc2cc(C(=N)N)ccc2[nH]1)CC(=O)O (stereo not drawn) [Example 18]	5.8	0.33
CC(CCCCCNC(=O)c1cc2cc(C(=N)N)ccc2[nH]1)C(=O)O (stereo not drawn) [Example 13]	28	5.25
CC(CCCCNC(=O)c1cc2cc(C(=N)N)ccc2o1)CC(=O)O (stereo not drawn) [Example 32]	0.23	0.01
CCCC(CC1CCC(CNC(=O)c2cc3cc(C(=N)N)ccc3[nH]2)CC1)C(=O)O (stereo not drawn) [Example 11]	> 100	> 100
Cc1c(C(=O)NCCCCCCC(=O)O)[nH]c2ccc(C(=N)N)cc12 [Example 33]	5	2.6
